Laboratory results reported in DBAASP.
Values after ≈ are worked out from the molar mass of the structure shown. Values joined by “and” are separate entries in the source; they are usually repeats but may differ in a detail not shown here. Equal entries are not always repeated. Each block holds one compound with its values, some of them ahead of it.

Experiments:
Assay in all cases: ≥ marks a high value that may be exact or a test limit, other limits are often not marked, values filed in µg/mL are converted to µM
[1] = tested on: Escherichia coli ATCC 25922
[2] = tested on: Listeria monocytogenes EGD
[3] = tested on: Pseudomonas aeruginosa ATCC 27853
[4] = tested on: Staphylococcus aureus ATCC 25923
[5] = tested on: Bacillus subtilis ATCC 6633
[6] = tested on: Candida albicans CGMCC 2.2411
[7] = tested on: Enterococcus faecium CMCC 1.2136
[8] = tested on: Escherichia coli CVCC 1515
[9] = tested on: Escherichia coli CVCC 195
[10] = tested on: Escherichia coli O157:H7 CICC 21530
[11] = tested on: Listeria ivanovii ATCC 19119
[12] = tested on: Pseudomonas aeruginosa CICC 10419
[13] = tested on: Pseudomonas aeruginosa CICC 21630
[14] = tested on: Salmonella enterica subsp. enterica serovar Choleraesuis CVCC 503
[15] = tested on: Salmonella enterica subsp. enterica serovar Enteritidis CVCC 3377
[16] = tested on: Salmonella enterica subsp. enterica serovar Pullorum CVCC 1789
[17] = tested on: Salmonella enterica subsp. enterica serovar Pullorum CVCC 1802
[18] = tested on: Salmonella enterica subsp. enterica serovar Typhimurium ATCC 14028
[19] = tested on: Staphylococcus aureus ATCC 43300
[20] = tested on: Streptococcus suis CVCC 606
[21] = tested on: Candida albicans JLC 30364
Staphylococcus aureus = tested on: Staphylococcus aureus
Streptococcus sanguinis = tested on: Streptococcus sanguinis
[22] = tested on: Bacillus subtilis ATCC 6051
[23] = tested on: Candida albicans ATCC 18804
[24] = tested on: Enterococcus faecalis ATCC 19433
[25] = tested on: Escherichia coli ATCC 11775
[26] = tested on: Listeria monocytogenes ATCC 7644
[27] = tested on: Mycobacterium tuberculosis H37Rv
[28] = tested on: Mycobacterium tuberculosis
[29] = tested on: Pseudomonas aeruginosa ATCC 10145
[30] = tested on: Pseudomonas aeruginosa DFU3
[31] = tested on: Salmonella enterica subsp. enterica serovar Typhi ATCC 6399
Shigella flexneri = tested on: Shigella flexneri
[32] = tested on: Staphylococcus aureus ATCC 29213
[33] = tested on: Staphylococcus aureus IAM 1098
[34] = tested on: Staphylococcus epidermidis SAM 0020
Streptococcus agalactiae = tested on: Streptococcus agalactiae

SMILES: CC(=O)N[C@@H](Cc1ccccc1)C(=O)N[C@@H](CCCCN)C(=O)N[C@@H](CCCCN)C(=O)N[C@@H](CC(C)C)C(=O)N[C@@H](CCCCN)C(=O)N[C@@H](CCCCN)C(=O)N[C@@H](CC(C)C)C(=O)N[C@@H](Cc1ccccc1)C(=O)N[C@@H](CO)C(=O)N[C@@H](CCCCN)C(=O)N[C@@H](CC(C)C)C(=O)N[C@@H](Cc1c[nH]c2ccccc12)C(=O)N[C@@H](CC(N)=O)C(=O)N[C@@H](Cc1c[nH]c2ccccc12)C(=O)N[C@@H](CCCCN)C(N)=O [FKKLKKLFSKLWNWK]
MIC [5]: 1.6 µM and 4 µM | MIC [21]: ≥ 32 µM

SMILES: NC(=O)[C@H](Cc1ccccc1)NC(=O)[C@H](Cc1ccccc1)NC(=O)[C@@H](N)Cc1ccccc1 [FFF]
MIC (Staphylococcus aureus): > 1090 µM | MIC (Streptococcus sanguinis): ≥ 1090 µM

SMILES: CC[C@H](C)[C@H](NC(=O)[C@H](CC(C)C)NC(=O)[C@H](CCCCN)NC(=O)[C@H](CC(C)C)NC(=O)[C@H](C)NC(=O)CNC(=O)[C@H](CCCCN)NC(=O)[C@H](C)NC(=O)[C@H](CC(C)C)NC(=O)[C@H](C)NC(=O)CNC(=O)[C@H](Cc1c[nH]c2ccccc12)NC(=O)[C@@H](N)Cc1ccccc1)C(=O)N1CCC[C@H]1C(=O)N[C@@H](CO)C(=O)N[C@@H](CC(C)C)C(=O)N[C@@H](Cc1ccccc1)C(=O)N[C@@H](CO)C(=O)N[C@@H](CO)C(=O)N[C@@H](Cc1ccccc1)C(=O)N[C@@H](CO)C(=O)N[C@@H](CCCCN)C(=O)N[C@@H](CCCCN)C(=O)N[C@@H](CC(=O)O)C(=O)O [FWGALAKGALKLIPSLFSSFSKKD]
MIC [22]: 4.8 µM (≈ 12.5 µg/mL) | MIC [5]: ≥ 37.5 µM | MIC [23]: 19.1 µM (≈ 49.9 µg/mL) | MIC [24]: 2.4 µM (≈ 6.27 µg/mL) | MIC [25]: 19.1 µM (≈ 49.9 µg/mL) | MIC [26]: 18.8 µM (≈ 49.1 µg/mL) | MIC [27]: 22.1 µM (≈ 57.7 µg/mL) | MIC [28]: ≥ 33.1 µM | MIC [29]: ≥ 38.2 µM | MIC [30]: 18.8 µM and 25 µM | MIC [31]: ≥ 37.5 µM | MIC (Shigella flexneri): ≥ 37.5 µM | MIC [32]: 6.2 µM and > 3.1 µM | MIC [33]: 2.4 µM (≈ 6.27 µg/mL) | MIC [34]: 4.8 µM (≈ 12.5 µg/mL) | MIC (Streptococcus agalactiae): 18.8 µM (≈ 49.1 µg/mL)

Continued, in another order:

MIC [1]: 128 µM (≈ 289 µg/mL) | MIC [2]: ≥ 128 µM | MIC [3]: 128 µM (≈ 289 µg/mL) | MIC [4]: 128 µM (≈ 289 µg/mL)
SMILES: CC[C@H](C)[C@H](NC(=O)[C@H](C)NC(=O)[C@H](CCCN=C(N)N)NC(=O)[C@H](CCCCN)NC(=O)[C@H](C)NC(=O)[C@H](CCC(N)=O)NC(=O)[C@H](CC(C)C)NC(=O)[C@H](CCCCN)NC(=O)[C@H](Cc1ccccc1)NC(=O)[C@H](CC(C)C)NC(=O)[C@H](CCCCN)NC(=O)[C@H](Cc1ccccc1)NC(=O)[C@@H](NC(=O)[C@@H](NC(=O)[C@H](CCCCN)NC(=O)[C@H](C)NC(=O)[C@H](C)NC(=O)[C@@H](N)CCCCN)[C@@H](C)O)C(C)C)C(=O)N[C@@H](CCC(=O)O)C(=O)N[C@@H](C)C(N)=O [KAAKTVFKLFKLQAKRAIEA]

MIC [5]: 30.1 µM (≈ 64 µg/mL) | MIC [6]: ≥ 60.1 µM | MIC [7]: 30.1 µM (≈ 64 µg/mL) | MIC [8]: ≥ 60.1 µM | MIC [9]: 30.1 µM (≈ 64 µg/mL) | MIC [10]: 30.1 µM (≈ 64 µg/mL) | MIC [11]: ≥ 60.1 µM | MIC [12]: ≥ 60.1 µM | MIC [13]: ≥ 60.1 µM | MIC [15]: 1.88 µM (≈ 4 µg/mL) | MIC [16]: ≥ 60.1 µM | MIC [17]: ≥ 60.1 µM | MIC [18]: 60.1 µM (≈ 128 µg/mL) | MIC [4]: 0.939 µM (≈ 2 µg/mL) | MIC [19]: > 60.1 µM | MIC [20]: ≥ 60.1 µM
SMILES: CC(C)[C@H](NC(=O)CNC(=O)[C@H](CC(N)=O)NC(=O)[C@H](CCCN=C(N)N)NC(=O)[C@H](Cc1ccc(O)cc1)NC(=O)[C@@H](NC(=O)[C@@H](NC(=O)[C@H](CC(N)=O)NC(=O)[C@H](Cc1c[nH]c2ccccc12)NC(=O)[C@H](Cc1ccccc1)NC(=O)CN)C(C)C)C(C)C)C(=O)N[C@@H](CCCN=C(N)N)C(=O)N[C@H](C(=O)N[C@@H](Cc1cnc[nH]1)C(=O)N[C@@H](CCCN=C(N)N)C(=O)N[C@@H](CCCN=C(N)N)C(=O)N[C@@H](CC(N)=O)C(=O)O)C(C)C [GFWNVVYRNGVRVHRRN]
MIC [14]: ≥ 60.1 µM
